Data published in patent US20050209106A1, “Substituted 4-(4-trifluoromethylpyrazolyl)pyrimidines” (Bayer CropScience GmbH, priority 2004, published 2005).

What was measured:
Type in all cases: in vivo
Amaranthus retroflexus [1] = test: Herbicidal pre-emergence action against harmful plants; settings: dosage of 1000 g and less than 1000 g of active substance per hectare, visual scoring after 3 to 4 weeks, greenhouse
Description: (§1) 1. Herbicidal Pre-Emergence Action Against Harmful Plants
(§2) Seeds of mono- and dicotyledonous harmful plants are put in sandy loam in cardboard pots and covered with soil. The compounds according to the invention, which are formulated in the form of wettable powders or emulsion concentrates, are then applied to the surface of the soil cover as an aqueous suspension or emulsion at an application rate of 600 to 800 l/ha (converted) in various dosages. After the treatment, the pots are placed in a greenhouse and kept under good growth conditions for the weeds. Visual scoring of the plant damage or emergence damage is carried out after the test plants have emerged after a test period of 3 to 4 weeks in comparison with untreated controls.

Lolium multiflorum = test: as above; settings: dosage of 1000 g and less than 1000 g of active substance per hectare, visual scoring after 3 to 4 weeks, greenhouse
Description: as §1, §2

Setaria viridis = test: as above; settings: dosage of 1000 g and less than 1000 g of active substance per hectare, visual scoring after 3 to 4 weeks, greenhouse
Description: as §1, §2

Stellaria media [2] = test: as above; settings: dosage of 1000 g and less than 1000 g of active substance per hectare, visual scoring after 3 to 4 weeks, greenhouse
Description: as §1, §2

Amaranthus retroflexus [3] = test: Herbicidal post-emergence action against harmful plants; settings: three-leaf stage, dosage of 1000 g and less than 1000 g of active substance per hectare, scored after 3 to 4 weeks, greenhouse
Experimental: (§3) 2. Herbicidal Post-Emergence Action Against Harmful Plants
(§4) Seeds of mono- and dicotyledonous harmful plants are put into sandy loam in cardboard pots, covered with soil and grown in the greenhouse under good growth conditions. Two to three weeks after sowing, the test plants are treated at the three-leaf stage. The compounds according to the invention, which are formulated as wettable powders or as emulsion concentrates, are sprayed onto the surface of the green plant parts in various dosages at a water application rate of 600 to 800 l/ha (converted). After the test plants have been left to stand in the greenhouse for 3 to 4 weeks under optimum growth conditions, the action of the compounds is scored.

Avena fatua = test: as above; settings: three-leaf stage, dosage of 1000 g and less than 1000 g of active substance per hectare, scored after 3 to 4 weeks, greenhouse
Experimental: as §3, §4

Sinapis arvensis = test: as above; settings: three-leaf stage, dosage of 1000 g and less than 1000 g of active substance per hectare, scored after 3 to 4 weeks, greenhouse
Experimental: as §3, §4

Stellaria media [4] = test: as above; settings: three-leaf stage, dosage of 1000 g and less than 1000 g of active substance per hectare, scored after 3 to 4 weeks, greenhouse
Experimental: as §3, §4

Cc1cc(-n2cc(C(F)(F)F)c(C)n2)nc(Oc2ccnc(C(F)(F)F)c2)n1 [1.14]
100%: action against Amaranthus retroflexus (Amaranthus retroflexus [1]) | action against Lolium multiflorum (Lolium multiflorum) | action against Setaria viridis (Setaria viridis) | action against Stellaria media (Stellaria media [2])

CCc1cc(-n2cc(C(F)(F)F)c(C)n2)nc(Oc2ccnc(C(F)(F)F)c2)n1 [1.26]
100%: action against Amaranthus retroflexus (Amaranthus retroflexus [1]) | action against Lolium multiflorum (Lolium multiflorum) | action against Setaria viridis (Setaria viridis) | action against Stellaria media (Stellaria media [2])

COc1cc(-n2ncc(C(F)(F)F)c2C)nc(Oc2ccnc(C(F)(F)F)c2)n1 [1.39]
100%: action against Amaranthus retroflexus (Amaranthus retroflexus [1]) | action against Lolium multiflorum (Lolium multiflorum) | action against Setaria viridis (Setaria viridis) | action against Stellaria media (Stellaria media [2])

COc1cc(-n2cc(C(F)(F)F)cn2)nc(Oc2ccnc(OC(F)F)c2)n1 [1.46]
100%: action against Amaranthus retroflexus (Amaranthus retroflexus [1]) | action against Lolium multiflorum (Lolium multiflorum) | action against Setaria viridis (Setaria viridis) | action against Stellaria media (Stellaria media [2]) | action against Amaranthus retroflexus (Amaranthus retroflexus [3]) | action against Avena fatua (Avena fatua) | action against Sinapis arvensis (Sinapis arvensis) | action against Stellaria media (Stellaria media [4])

Cc1cc(-n2cc(C(F)(F)F)cn2)nc(Oc2csc(C(F)(F)F)c2)n1 [7.13]
100%: action against Amaranthus retroflexus (Amaranthus retroflexus [1]) | action against Setaria viridis (Setaria viridis) | action against Stellaria media (Stellaria media [2])

Cc1cc(-n2cc(C(F)(F)F)cn2)nc(Oc2cc(C(F)(F)F)nn2C)n1 [9.13]
100%: action against Amaranthus retroflexus (Amaranthus retroflexus [1]) | action against Setaria viridis (Setaria viridis) | action against Stellaria media (Stellaria media [2])

Cc1cc(-n2cc(C(F)(F)F)c(C)n2)nc(Oc2cc(C(F)(F)F)nn2C)n1 [9.14]
100%: action against Amaranthus retroflexus (Amaranthus retroflexus [1]) | action against Setaria viridis (Setaria viridis) | action against Stellaria media (Stellaria media [2])

CCc1cc(-n2cc(C(F)(F)F)cn2)nc(Oc2cc(C(F)(F)F)nn2C)n1 [9.25]
100%: action against Amaranthus retroflexus (Amaranthus retroflexus [3]) | action against Avena fatua (Avena fatua) | action against Sinapis arvensis (Sinapis arvensis) | action against Stellaria media (Stellaria media [4])
